The source of these data is ChEMBL document CHEMBL3352705, “Anion inhibition study of the β-class carbonic anhydrase (PgiCAb) from the oral pathogen Porphyromonas gingivalis” (Bioorg Med Chem Lett, 2014).

Structures are written as SMILES.

In this assay the target is Carbonic anhydrase 2 (Homo sapiens, UniProt P00918).

The term Ki denotes a measure of affinity in units of concentration, obtained from inhibition or displacement. Regarding `[F-].[Na+]` [SODIUM FLUORIDE], the Ki was more than 200 mM.
